Patent publication US12679839B2, “Cyclin-dependent kinase 7 (CDK7) non-covalent inhibitors” (JANSSEN PHARMACEUTICA NV, priority 2020, dated 2026)

Test system: RNA polymerase II Serine 5 phosphorylation (Rpb1 CTD), downstream substrate of CDK7
Test: Imaging-based cellular RNA PolII Ser5 phosphorylation assay in A549 cells
Format: cell-based, human
Settings: challenged with compound for 3 hours; for IC50: Homo sapiens, A549, 3 h, read-out: pRNA polII Ser5 (A549) pIC50 (converted)
Source text: Dosing curves were fitted using the following equation to obtain IC50: Y=Bottom+(Top−Bottom)/(1+10^((log IC50−X)*Hill slope)) where X=log10 of the compound concentration; top and bottom can be defined by PC and NC respectively. Imaging-Based Cellular RNA PolII Ser5 Phosphorylation Assay
To evaluate inhibition of CDK7 kinase activity, a 384-well automated imaging assay was used. This assay detects Serine 5 phosphorylation on a unique heptapeptide sequence in the C-terminal domain of Rpb1 subunit of RNA polymerase II, the downstream substrate of CDK7. This heptapeptide sequence is repeated up to 52 times in the CTD of Rpb1.
A549 adenocarcinoma human alveolar basal epithelial cells (ATCC, CCL-185), rabbit Phospho-Rpb1 CTD (Ser5) antibody (D9N51 (Cell Signaling Technology)), DMEM (Sigma), Fetal Bovine Serum (Biowest), L-glutamine (Sigma), Penicillin/Streptomycin (Life Technologies), Sodium Pyruvate (Sigma), Hepes (Sigma), poly-D-lysine coated μclear 384 black plates (Greiner), formaldehyde (PolySciences), D-PBS (Sigma), Methanol (Sigma), Alexa Fluor 488 goat anti rabbit IgG secondary antibody (Life Technologies), HCS CellMask™ Deep Red stain (Life Technologies), Hoechst 33258 (Invitrogen).
RNA Polymerase II Serine 5 phosphorylation was detected using a specific rabbit Phospho-Rpb1 CTD (Ser5) antibody. A549 adenocarcinoma human alveolar basal epithelial cells were seeded in 20 μl medium (DMEM supplemented with 1% Fetal Bovine Serum (heat inactivated 30′ 56° C.), 2 mM L-glutamine, 50 U/ml penicillin 50 μg/ml streptomycin, 1 mM sodium pyruvate and 50 mM hepes) at 1000 cells/well and cultured in poly-D-lysine coated μclear 384 black plates for 20 hours at 37° C. and 5% CO2.
After incubation cells were challenged with compound for 3 hours at 37° C. and 5% CO2. DMSO was used as high control and as low control 10 μM of LDC4297 reference compound was used. 40 nl of test compounds and controls were spotted in cell plates using Echo Liquid Handler (Echo 550, Labcyte). Incubation was followed by 20 minutes fixation with 20 μl 10% formaldehyde at room temperature. Medium/formaldehyde solution was removed, plates were washed 3 times with 30 μl D-PBS (w/o Ca^2+ and Ma^2+) and permeabilization was done by adding 20 μl ice cold methanol for 20 minutes. Cells were washed again 3 times with 30 μl D-PBS and 20 μl blocking buffer (25 ml fetal bovine serum in 500 ml D-PBS) was added for 1 hour.
After removing blocking buffer 20 μl 1/1000 primary antibody rabbit. Phospho-Rpb1 CTD (Ser5) antibody was added which binds to the phosphorylated Serine5 of the heptapeptide sequences in the CTD of Rpb1. Primary antibody was removed, and plates were washed 3 times with 30 μl D-PBS followed by addition of 20 μl 1/2000 Alexa Fluor 488 goat anti rabbit IgG secondary antibody for final detection of Phospho-Rpb1 CTD (Ser5) together with 1/5000 HCS CellMask™ Deep Red stain for membrane staining and 1/5000 Hoechst 33258 for nucleus staining. Last, plates were washed 2 times with 30 μl D-PBS and wells were filled with 40 μL D-PBS, plates were sealed (Thermowell sealing tape) and stored at 4° C. until reading. Plates were read with Opera Phenix (Perkin Elmer) with 10× air objective. Data were calculated and analyzed in Phaedra.
IC50 values were calculated using the following formula:
Average value of all HC's and all LC's are used for normalizations. % Effect=100−(sample−LC)/(HC−LC)×100% Control=(sample/HC)×100
A best-fit curve is fitted by a minimum sum of squares method to the plot of % Control vs. compound concentration. From this an IC50 value can be obtained. An estimate of the slope of the plot in terms of the Hill coefficient is also obtained.

IC50 [nM]	pRNA polII Ser5 (A549) pIC50	Structure (SMILES)
490		C[C@@H]1Cc2cnc(N[C@@H]3COc4ccccc43)nc2CN1C(=O)[C@H]1CCN(C)C[C@@H]1c1ccccc1 (relative stereo) [Compound 18]
240		CO[C@H]1CC[C@H](Nc2ncc3c(n2)CN(C(=O)[C@H]2CCN(C)C[C@@H]2c2ccccc2)C(C)(C)C3)CC1 (single isomer, unassigned) [Compound 190]
18.6		C[C@@H]1Cc2cnc(Nc3cnn(CC4CC4)c3)nc2CN1C(=O)[C@H]1CCN(C)C[C@@H]1c1ccccc1 [Compound 80]
41.7		CCO[C@H]1CC[C@H](Nc2ncc3c(n2)CN(C(=O)[C@H]2CCN(C)C[C@@H]2c2ccccc2)[C@H](C)C3)CC1 [Compound 19]
363		C[C@@H]1Cc2cnc(N[C@H]3COc4ccccc43)nc2CN1C(=O)[C@H]1CCN(C)C[C@@H]1c1ccccc1 (relative stereo) [Compound 17]
1350		Cc1nn(C)c(C)c1Nc1ncc2c(n1)CN(C(=O)[C@H]1CCN(C)C[C@@H]1c1ccccc1)[C@H](C)C2 [Compound 81]
~33.1		C[C@@H]1Cc2cnc(Nc3ccnc(C4CC4)c3)nc2CN1C(=O)[C@H]1CCN(C)C[C@@H]1c1ccccc1 [Compound 76]
178		CC(C)N1CC[C@H](C(=O)N2Cc3nc(NC4CCOCC4)ncc3C[C@H]2C)[C@@H](c2ccccc2)C1 (single isomer, unassigned) [Compound 157]
77.6		CCN1CC[C@H](C(=O)N2Cc3nc(NC4CCOCC4)ncc3C[C@H]2C)[C@@H](c2ccccc2)C1 (single isomer, unassigned) [Compound 158]
776		C[C@H]1Cc2cnc(NC3CCOCC3)nc2[C@H](C)N1C(=O)[C@H]1CCN(C)C[C@@H]1c1ccccc1 [Compound 196]
> 10000		C[C@@H]1Cc2cnc(NC3CCOCC3)nc2CN1C(=O)[C@H]1CCN(C2COC2)C[C@@H]1c1ccccc1 (single isomer, unassigned) [Compound 159]
40.7		C[C@@H]1Cc2cnc(N[C@H]3CCOC4(CCCC4)C3)nc2CN1C(=O)[C@H]1CCN(C)C[C@@H]1c1ccccc1 (relative stereo) [Compound 16]

The next lines start with the molecule.

Structure (SMILES)	IC50 [nM]	pRNA polII Ser5 (A549) pIC50
C[C@@H]1Cc2cnc(NCc3ccn(C)n3)nc2CN1C(=O)[C@H]1CCN(C)C[C@@H]1c1cccc(C(F)F)c1 (relative stereo) [Compound 124]	~44.7	
C[C@@H]1Cc2cnc(NCc3ccn(C)n3)nc2CN1C(=O)[C@H]1CCN(C)C[C@@H]1c1cccc(C2CC2)c1 (relative stereo) [Compound 121]	< 2.45	
[2H]C([2H])([2H])N1CC[C@@H](C(=O)N2Cc3cc(NCc4ccn(C)n4)ncc3C[C@@H]2C)[C@H](c2ccccc2)C1 (single isomer, unassigned) [Compound 178]	3720	
Cc1cccc([C@@H]2CN(C)CC[C@H]2C(=O)N2Cc3cc(Nc4cnn(C)c4)ncc3C[C@@H]2C)c1 (single isomer, unassigned) [Compound 179]	~83.2	
C[C@@H]1Cc2cnc(NCc3ccn(C)n3)nc2CN1C(=O)[C@@H]1CCN(C)C[C@H]1c1cccc(C(F)F)c1 (relative stereo) [Compound 123]	2400	
CN1CC[C@H](C(=O)N2Cc3nc(NCc4ccn(C)n4)ncc3[C@@H]3C[C@@H]32)[C@@H](c2ccccc2)C1 [Compound 198]	234	
C[C@@H]1CN(C)CC[C@H]1C(=O)N1Cc2nc(NCc3ccn(C)n3)ncc2C[C@H]1C (relative stereo) [Compound 147]	813	
[2H]C([2H])([2H])c1cccc([C@@H]2CN(C)CC[C@H]2C(=O)N2Cc3nc(NCc4ccn(C)n4)ncc3C[C@H]2C)c1 (relative stereo) [Compound 99]	603	
Cc1c(Nc2ncc3c(n2)CN(C(=O)[C@H]2CCN(C)C[C@@H]2c2ccccc2)[C@H](C)C3)cnn1C [Compound 87]	661	
[2H]C([2H])([2H])c1cccc([C@H]2CN(C)CC[C@@H]2C(=O)N2Cc3nc(NCc4ccn(C)n4)ncc3C[C@H]2C)c1 (relative stereo) [Compound 100]	~26.3	
C[C@@H]1Cc2cnc(Nc3cn(C)nc3C(F)(F)F)nc2CN1C(=O)[C@H]1CCN(C)C[C@@H]1c1ccccc1 [Compound 84]	1120	
C[C@@H]1Cc2cnc(Nc3cnn(C4CCCC4)c3)nc2CN1C(=O)[C@H]1CCN(C)C[C@@H]1c1ccccc1 [Compound 88]	28.8	
[2H]C([2H])([2H])c1cccc([C@@H]2CN(C)CC[C@H]2C(=O)N2Cc3nc(Nc4cnn(C)c4)ncc3C[C@H]2C)c1 (relative stereo) [Compound 97]		6.23
CC(C)Oc1cccc([C@H]2CN(C)CC[C@@H]2C(=O)N2Cc3nc(NCc4ccn(C)n4)ncc3C[C@H]2C)c1 (relative stereo) [Compound 138b]	182	
C[C@@H]1Cc2cnc(Nc3cnn(CC(F)F)c3)nc2CN1C(=O)[C@H]1CCN(C)C[C@@H]1c1ccccc1 [Compound 85]	~30.9	
Cc1cccc([C@H]2CN(C)CC[C@@H]2C(=O)N2Cc3nc(Nc4ccnc(C)c4)ncc3C[C@H]2C)c1 [Compound 135]	~20.4	
CC(C)Oc1cccc([C@@H]2CN(C)CC[C@H]2C(=O)N2Cc3nc(NCc4ccn(C)n4)ncc3C[C@H]2C)c1 (relative stereo) [Compound 138a]	> 10000	
[2H]C([2H])([2H])c1cccc([C@@H]2CN(C)CC[C@H]2C(=O)N2Cc3nc(Nc4cnn(C)c4)ncc3C[C@H]2C)c1 (relative stereo) [Compound 98]		~7.6
Cc1nn(C)cc1Nc1ncc2c(n1)CN(C(=O)[C@H]1CCN(C)C[C@@H]1c1ccccc1)[C@H](C)C2 [Compound 86]	447	
